In ChEMBL document CHEMBL4425158, “Synthesis, structure-activity relationships and biological evaluation of 4,5,6,7-tetrahydropyrazolopyrazines as metabotropic glutamate receptor 5 negative allosteric modulators” (Bioorg Med Chem Lett, 2016):
pIC50: −log10 of the molar value. ≈ marks a conversion by molar mass, not a printed value. Calls of active or inactive are those of the source. No cut-off for these calls is given here.

Assays:
[1] = biological target: Metabotropic glutamate receptor 5 (Homo sapiens, UniProt P41594); test: Negative allosteric modulation of human recombinant mGluR5 expressed in HEK293 cells assessed as L-glutamate-induced intracellular calcium mobilization incubated for 20 mins before L-glutamate addition; type: functional, cell-based
Sequence of Metabotropic glutamate receptor 5 (P41594 whole entry): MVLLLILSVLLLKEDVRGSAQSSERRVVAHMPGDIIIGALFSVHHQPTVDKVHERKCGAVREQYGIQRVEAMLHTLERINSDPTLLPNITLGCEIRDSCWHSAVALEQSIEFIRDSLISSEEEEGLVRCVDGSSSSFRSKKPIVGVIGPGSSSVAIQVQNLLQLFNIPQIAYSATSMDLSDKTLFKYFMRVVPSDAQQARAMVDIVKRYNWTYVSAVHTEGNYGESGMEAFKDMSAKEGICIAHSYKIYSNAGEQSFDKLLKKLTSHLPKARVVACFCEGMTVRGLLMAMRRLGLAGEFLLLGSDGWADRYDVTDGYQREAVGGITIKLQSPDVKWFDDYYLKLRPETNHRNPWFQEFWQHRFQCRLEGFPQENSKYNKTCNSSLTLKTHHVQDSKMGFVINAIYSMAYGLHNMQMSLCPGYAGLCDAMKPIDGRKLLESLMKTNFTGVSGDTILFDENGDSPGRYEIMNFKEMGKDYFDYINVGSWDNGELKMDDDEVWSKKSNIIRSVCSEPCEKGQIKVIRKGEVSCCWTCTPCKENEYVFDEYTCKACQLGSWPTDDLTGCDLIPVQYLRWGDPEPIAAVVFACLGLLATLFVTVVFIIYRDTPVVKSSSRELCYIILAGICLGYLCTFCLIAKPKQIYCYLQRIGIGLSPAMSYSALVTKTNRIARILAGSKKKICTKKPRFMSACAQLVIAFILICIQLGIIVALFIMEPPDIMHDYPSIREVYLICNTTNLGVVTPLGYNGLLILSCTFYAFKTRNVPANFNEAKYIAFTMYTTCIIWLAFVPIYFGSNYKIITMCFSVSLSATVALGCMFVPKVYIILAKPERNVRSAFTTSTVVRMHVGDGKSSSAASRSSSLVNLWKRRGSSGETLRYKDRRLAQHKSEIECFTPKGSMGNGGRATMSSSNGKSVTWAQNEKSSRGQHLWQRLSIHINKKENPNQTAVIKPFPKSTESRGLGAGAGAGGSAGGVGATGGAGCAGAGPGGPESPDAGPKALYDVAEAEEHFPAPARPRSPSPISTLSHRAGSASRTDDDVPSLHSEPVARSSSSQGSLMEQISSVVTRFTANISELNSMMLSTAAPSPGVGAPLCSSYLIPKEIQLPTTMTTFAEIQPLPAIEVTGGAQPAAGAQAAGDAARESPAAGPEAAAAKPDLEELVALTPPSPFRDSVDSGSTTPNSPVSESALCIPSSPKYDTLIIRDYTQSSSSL

[2] = Aqueous solubility of the compound at pH 1.2; type: physicochemical
Cytochrome P450 2A6 = biological target: T1, Cytochrome P450 2A6 (Homo sapiens, UniProt P11509); test: Inhibition of CYP2A6 in human liver microsomes using coumarin as substrate after 10 mins in presence of NADPH by LC/MS/MS analysis; type: ADME
T1 sequence (P11509 whole entry): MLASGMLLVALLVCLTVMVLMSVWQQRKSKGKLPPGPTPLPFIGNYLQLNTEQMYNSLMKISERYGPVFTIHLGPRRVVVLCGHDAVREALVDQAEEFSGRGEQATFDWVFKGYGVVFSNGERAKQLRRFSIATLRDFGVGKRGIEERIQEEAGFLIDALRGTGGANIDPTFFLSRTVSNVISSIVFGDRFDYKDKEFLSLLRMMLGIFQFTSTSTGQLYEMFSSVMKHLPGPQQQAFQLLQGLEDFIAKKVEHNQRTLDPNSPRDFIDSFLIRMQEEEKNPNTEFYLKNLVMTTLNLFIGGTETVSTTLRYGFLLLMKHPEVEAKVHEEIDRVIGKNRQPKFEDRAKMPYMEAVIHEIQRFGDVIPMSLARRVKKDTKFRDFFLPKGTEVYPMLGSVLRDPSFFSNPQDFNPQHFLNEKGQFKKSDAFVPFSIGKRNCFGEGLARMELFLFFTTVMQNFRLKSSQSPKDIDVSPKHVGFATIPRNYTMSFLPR

Cytochrome P450 2C19 = Cytochrome P450 2C19 (Homo sapiens, UniProt P33261); test: Inhibition of CYP2C19 in human liver microsomes using (S)-mephenytoin as substrate after 10 mins in presence of NADPH by LC/MS/MS analysis; type: ADME
Sequence of Cytochrome P450 2C19 (P33261 whole entry): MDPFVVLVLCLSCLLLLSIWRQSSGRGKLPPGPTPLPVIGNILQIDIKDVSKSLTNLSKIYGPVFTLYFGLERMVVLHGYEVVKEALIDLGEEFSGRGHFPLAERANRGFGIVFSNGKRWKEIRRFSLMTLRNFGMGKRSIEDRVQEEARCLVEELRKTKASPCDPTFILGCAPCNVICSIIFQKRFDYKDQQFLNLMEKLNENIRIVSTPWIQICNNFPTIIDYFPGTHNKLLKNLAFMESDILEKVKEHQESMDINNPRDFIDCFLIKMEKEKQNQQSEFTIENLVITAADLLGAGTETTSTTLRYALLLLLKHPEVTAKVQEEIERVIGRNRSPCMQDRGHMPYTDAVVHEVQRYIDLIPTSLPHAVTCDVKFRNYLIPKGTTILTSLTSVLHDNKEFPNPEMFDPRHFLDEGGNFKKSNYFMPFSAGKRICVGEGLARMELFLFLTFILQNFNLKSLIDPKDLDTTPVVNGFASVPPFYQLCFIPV

Cytochrome P450 2C8 = biological target: T2, Cytochrome P450 2C8 (Homo sapiens, UniProt P10632); test: Inhibition of CYP2C8 in human liver microsomes using amodiaquin as substrate after 10 mins in presence of NADPH by LC/MS/MS analysis; type: ADME
T2 sequence (P10632 whole entry): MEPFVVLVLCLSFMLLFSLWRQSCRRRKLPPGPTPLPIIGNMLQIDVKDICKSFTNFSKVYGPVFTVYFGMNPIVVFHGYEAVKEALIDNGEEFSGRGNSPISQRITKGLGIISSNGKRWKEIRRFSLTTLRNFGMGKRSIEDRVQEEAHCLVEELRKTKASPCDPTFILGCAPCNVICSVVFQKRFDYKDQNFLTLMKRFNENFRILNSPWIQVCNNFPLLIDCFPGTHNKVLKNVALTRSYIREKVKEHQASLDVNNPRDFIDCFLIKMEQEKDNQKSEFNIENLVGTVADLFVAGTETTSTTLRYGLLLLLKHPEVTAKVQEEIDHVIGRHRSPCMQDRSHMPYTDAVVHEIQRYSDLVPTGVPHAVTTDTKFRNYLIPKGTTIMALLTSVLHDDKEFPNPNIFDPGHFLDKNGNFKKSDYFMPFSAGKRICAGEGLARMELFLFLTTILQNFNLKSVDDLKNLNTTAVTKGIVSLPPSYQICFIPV

Cytochrome P450 3A4 = Cytochrome P450 3A4 (Homo sapiens, UniProt P08684); test: Inhibition of CYP3A4 in human liver microsomes using midazolam as substrate after 10 mins in presence of NADPH by LC/MS/MS analysis; type: ADME
Sequence of Cytochrome P450 3A4 (P08684 whole entry): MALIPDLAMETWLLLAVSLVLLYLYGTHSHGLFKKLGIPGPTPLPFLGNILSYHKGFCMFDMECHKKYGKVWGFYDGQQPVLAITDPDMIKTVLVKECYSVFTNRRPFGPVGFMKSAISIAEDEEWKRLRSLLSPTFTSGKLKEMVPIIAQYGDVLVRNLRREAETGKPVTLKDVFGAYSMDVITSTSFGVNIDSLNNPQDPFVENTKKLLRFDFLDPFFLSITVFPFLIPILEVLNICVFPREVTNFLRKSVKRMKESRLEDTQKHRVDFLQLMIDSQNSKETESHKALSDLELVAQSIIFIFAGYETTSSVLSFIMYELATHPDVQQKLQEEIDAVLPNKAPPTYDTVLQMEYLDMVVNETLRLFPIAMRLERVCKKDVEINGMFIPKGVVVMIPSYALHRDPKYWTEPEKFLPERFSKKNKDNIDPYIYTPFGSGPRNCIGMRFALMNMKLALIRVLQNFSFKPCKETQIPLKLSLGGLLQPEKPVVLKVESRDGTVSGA

Cytochrome P450 1A2 = biological target: T3, Cytochrome P450 1A2 (Homo sapiens, UniProt P05177); test: Inhibition of CYP1A2 in human liver microsomes using phenacetin as substrate after 10 mins in presence of NADPH by LC/MS/MS analysis; type: ADME
T3 sequence (P05177 whole entry): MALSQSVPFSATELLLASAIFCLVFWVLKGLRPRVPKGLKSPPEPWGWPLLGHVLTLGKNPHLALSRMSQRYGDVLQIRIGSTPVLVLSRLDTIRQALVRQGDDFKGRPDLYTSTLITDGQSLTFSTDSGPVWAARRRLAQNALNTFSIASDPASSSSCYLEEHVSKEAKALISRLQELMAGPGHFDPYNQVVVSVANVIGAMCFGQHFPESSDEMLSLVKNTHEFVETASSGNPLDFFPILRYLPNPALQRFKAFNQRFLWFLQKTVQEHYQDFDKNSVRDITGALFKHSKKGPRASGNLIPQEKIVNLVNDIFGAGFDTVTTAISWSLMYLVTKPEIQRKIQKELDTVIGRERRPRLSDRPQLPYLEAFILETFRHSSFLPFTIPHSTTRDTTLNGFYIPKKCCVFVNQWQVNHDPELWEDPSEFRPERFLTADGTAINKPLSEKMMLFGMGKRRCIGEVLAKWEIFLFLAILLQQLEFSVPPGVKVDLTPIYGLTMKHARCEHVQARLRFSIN

[3] = Aqueous solubility of the compound at pH 7.4; type: physicochemical
[4] = Metabolic stability in human liver microsomes assessed as compound remaining at 1 uM after 30 mins in presence of NADPH by LC/MS/MS analysis; type: ADME, Microsome; details: read-out: Stability
[5] = Metabolic stability in rat liver microsomes assessed as compound remaining at 1 uM after 30 mins in presence of NADPH by LC/MS/MS analysis; type: ADME, Microsome; details: read-out: Stability
Cytochrome P450 2C9 = Cytochrome P450 2C9 (Homo sapiens, UniProt P11712); test: Inhibition of CYP2C9 in human liver microsomes using diclofenac as substrate after 10 mins in presence of NADPH by LC/MS/MS analysis; type: ADME
Sequence of Cytochrome P450 2C9 (P11712 whole entry): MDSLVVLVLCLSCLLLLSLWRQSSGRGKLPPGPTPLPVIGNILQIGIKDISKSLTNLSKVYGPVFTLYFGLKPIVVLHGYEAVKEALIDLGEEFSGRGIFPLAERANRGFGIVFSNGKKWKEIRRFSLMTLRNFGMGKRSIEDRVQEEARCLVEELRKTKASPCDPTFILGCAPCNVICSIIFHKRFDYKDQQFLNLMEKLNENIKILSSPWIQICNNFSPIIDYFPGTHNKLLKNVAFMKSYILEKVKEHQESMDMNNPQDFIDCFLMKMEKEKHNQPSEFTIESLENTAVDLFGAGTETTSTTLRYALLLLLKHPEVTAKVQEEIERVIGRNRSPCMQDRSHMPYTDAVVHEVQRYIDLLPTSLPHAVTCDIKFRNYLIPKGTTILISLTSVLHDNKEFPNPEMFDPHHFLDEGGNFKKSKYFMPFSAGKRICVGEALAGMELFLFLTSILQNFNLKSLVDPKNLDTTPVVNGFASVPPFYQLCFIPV

Cytochrome P450 2D6 = Cytochrome P450 2D6 (Homo sapiens, UniProt P10635); test: Inhibition of CYP2D6 in human liver microsomes using bufuralol as substrate after 10 mins in presence of NADPH by LC/MS/MS analysis; type: ADME
Sequence of Cytochrome P450 2D6 (P10635 whole entry): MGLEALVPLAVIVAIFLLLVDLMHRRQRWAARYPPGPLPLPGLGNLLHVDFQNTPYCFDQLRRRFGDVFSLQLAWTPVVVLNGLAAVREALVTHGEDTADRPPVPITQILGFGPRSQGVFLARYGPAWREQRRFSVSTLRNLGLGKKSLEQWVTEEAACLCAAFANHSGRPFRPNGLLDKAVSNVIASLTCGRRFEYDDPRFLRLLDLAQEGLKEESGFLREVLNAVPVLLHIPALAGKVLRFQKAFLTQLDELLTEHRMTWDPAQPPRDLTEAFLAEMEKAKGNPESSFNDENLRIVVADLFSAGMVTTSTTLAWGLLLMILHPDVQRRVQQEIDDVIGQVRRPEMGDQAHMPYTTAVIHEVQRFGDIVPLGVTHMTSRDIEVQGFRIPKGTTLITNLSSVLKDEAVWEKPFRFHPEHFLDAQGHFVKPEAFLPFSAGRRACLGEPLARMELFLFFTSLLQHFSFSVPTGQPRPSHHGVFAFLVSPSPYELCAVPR

[6] = AUC(0 to infinity) in rat plasma at 1 mg/kg, iv after 5 mins to 24 hrs; type: ADME, organism-based; design: dose 1 mg/kg, route intravenous, time infinity
[7] = Ratio of drug level in brain to plasma in ICR mouse at 30 mg/kg, po after 1 hr by LC/MS/MS analysis; type: ADME, organism-based; details: read-out: BPR
[8] = Oral bioavailability in rat plasma at 10 mg/kg, after 15 mins to 24 hrs; type: ADME, organism-based
Mus musculus = test: Antidepressant activity in CD1(ICR) mouse assessed as decrease in immobility time at 30 mg/kg, po after 1 hr by tail suspension test; type: functional, organism-based
[9] = biological target: T4, Aryl hydrocarbon receptor (Homo sapiens, UniProt P35869); test: Induction of human AhR assessed as CYP450 activation; type: ADME
T4 sequence (P35869 whole entry): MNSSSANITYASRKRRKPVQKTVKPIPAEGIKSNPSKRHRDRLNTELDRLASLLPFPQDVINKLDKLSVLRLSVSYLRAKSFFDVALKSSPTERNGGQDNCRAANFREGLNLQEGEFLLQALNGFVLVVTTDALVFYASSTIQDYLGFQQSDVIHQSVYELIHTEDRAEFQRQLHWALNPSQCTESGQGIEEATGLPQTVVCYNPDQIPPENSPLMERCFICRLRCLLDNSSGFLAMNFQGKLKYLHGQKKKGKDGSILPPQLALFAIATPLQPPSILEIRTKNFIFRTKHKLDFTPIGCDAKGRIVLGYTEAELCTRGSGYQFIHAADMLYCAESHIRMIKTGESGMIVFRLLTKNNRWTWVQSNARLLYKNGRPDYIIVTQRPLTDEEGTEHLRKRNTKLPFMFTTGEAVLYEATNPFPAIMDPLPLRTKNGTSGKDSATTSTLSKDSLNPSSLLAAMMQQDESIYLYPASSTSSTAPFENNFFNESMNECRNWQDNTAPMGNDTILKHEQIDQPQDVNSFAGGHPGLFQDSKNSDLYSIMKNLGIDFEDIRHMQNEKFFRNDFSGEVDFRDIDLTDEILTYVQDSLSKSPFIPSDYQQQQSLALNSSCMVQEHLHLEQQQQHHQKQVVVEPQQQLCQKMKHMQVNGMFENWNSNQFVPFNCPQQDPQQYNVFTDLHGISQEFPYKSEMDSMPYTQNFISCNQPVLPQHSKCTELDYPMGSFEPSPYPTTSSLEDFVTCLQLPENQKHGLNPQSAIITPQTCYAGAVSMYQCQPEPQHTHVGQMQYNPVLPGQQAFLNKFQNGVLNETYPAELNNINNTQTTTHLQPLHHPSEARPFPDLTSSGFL

[10] = Plasma concentration in ICR mouse at 30 mg/kg, po after 1 hr by LC/MS/MS analysis; type: ADME, organism-based
[11] = Drug uptake in ICR mouse brain at 30 mg/kg, po after 1 hr by LC/MS/MS analysis; type: ADME, organism-based; details: read-out: Drug uptake
[12] = Volume of distribution in steady state in rat plasma at 1 mg/kg, iv after 5 mins to 24 hrs; type: ADME, organism-based; details: read-out: Vdss
[13] = Protein binding in ICR mouse brain at 30 mg/kg, po after 1 hr by LC/MS/MS analysis; type: ADME, organism-based; details: read-out: PB (converted)
[14] = Cmax in rat plasma at 10 mg/kg, po after 15 mins to 24 hrs; type: ADME, organism-based; design: dose 10 mg/kg, route oral
[15] = Clearance in rat plasma at 1 mg/kg, iv after 5 mins to 24 hrs; type: ADME, organism-based
P-gp (ABCB1) = P-gp (ABCB1) (Homo sapiens, UniProt P08183); test: Substrate activity at P-gp (unknown origin) assessed as efflux ratio; type: ADME; details: not told
[16] = biological target: Voltage-gated inwardly rectifying potassium channel KCNH2 (Homo sapiens, UniProt Q12809); test: Inhibition of human ERG
Sequence of Voltage-gated inwardly rectifying potassium channel KCNH2 (Q12809 whole entry): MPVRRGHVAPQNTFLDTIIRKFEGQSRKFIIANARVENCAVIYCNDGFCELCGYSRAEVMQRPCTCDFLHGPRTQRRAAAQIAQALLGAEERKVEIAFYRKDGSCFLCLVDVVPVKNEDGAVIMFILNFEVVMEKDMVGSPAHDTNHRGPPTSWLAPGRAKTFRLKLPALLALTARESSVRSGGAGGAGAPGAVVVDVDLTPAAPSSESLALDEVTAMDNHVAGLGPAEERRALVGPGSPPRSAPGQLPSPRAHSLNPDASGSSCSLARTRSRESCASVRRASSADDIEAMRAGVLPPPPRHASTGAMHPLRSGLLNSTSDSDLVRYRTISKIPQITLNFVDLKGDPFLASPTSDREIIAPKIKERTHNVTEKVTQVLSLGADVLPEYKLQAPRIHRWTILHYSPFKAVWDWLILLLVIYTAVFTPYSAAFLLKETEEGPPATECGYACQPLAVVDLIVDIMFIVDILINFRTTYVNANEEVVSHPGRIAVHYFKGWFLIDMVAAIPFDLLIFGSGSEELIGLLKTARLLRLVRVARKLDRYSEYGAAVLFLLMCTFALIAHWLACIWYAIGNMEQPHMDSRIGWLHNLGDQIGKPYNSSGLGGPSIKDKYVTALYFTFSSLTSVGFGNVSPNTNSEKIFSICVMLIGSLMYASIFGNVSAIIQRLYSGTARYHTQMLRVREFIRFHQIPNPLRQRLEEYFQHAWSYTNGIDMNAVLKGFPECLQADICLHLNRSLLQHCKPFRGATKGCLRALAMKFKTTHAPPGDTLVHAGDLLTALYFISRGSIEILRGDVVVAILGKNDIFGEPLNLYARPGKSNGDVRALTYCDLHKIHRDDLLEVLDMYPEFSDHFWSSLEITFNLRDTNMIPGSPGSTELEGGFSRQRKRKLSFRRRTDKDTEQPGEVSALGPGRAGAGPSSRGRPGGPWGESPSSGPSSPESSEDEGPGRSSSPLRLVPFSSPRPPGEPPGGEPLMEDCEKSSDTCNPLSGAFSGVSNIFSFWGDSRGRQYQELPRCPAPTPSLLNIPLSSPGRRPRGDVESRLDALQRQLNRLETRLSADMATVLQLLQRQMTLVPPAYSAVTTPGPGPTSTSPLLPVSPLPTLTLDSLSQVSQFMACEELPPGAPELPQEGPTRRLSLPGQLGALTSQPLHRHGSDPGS

[17] = Permeability of the compound at pH 7.4 by PAMPA; type: ADME; details: read-out: permeability
[18] = Half life in rat plasma at 1 mg/kg, iv after 5 mins to 24 hrs; type: ADME, organism-based
[19] = AUC(0 to infinity) in rat plasma at 10 mg/kg, po after 15 mins to 24 hrs; type: ADME, organism-based; design: dose 10 mg/kg, route oral, time infinity
[20] = Unbound drug concentration in ICR mouse brain at 30 mg/kg, po after 1 hr by LC/MS/MS analysis; type: ADME, organism-based; details: in vivo
[21] = biological target: T5, Nuclear receptor subfamily 1 group I member 2 (Homo sapiens, UniProt O75469); test: Induction of human PXR assessed as CYP450 activation; type: ADME
T5 sequence (O75469 whole entry): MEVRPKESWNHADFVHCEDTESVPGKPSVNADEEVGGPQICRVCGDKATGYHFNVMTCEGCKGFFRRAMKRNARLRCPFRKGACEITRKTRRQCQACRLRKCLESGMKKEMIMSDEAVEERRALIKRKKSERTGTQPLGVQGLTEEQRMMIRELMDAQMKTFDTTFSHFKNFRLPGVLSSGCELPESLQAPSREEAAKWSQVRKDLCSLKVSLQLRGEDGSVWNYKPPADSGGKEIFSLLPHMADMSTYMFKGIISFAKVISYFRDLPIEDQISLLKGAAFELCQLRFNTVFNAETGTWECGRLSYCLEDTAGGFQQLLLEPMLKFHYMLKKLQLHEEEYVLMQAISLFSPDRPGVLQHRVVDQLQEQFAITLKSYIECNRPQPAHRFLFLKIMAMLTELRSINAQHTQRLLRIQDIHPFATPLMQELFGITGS

| pIC50 [1] | solubility [2] | pIC50 (Cytochrome P450 2A6) | pIC50 (Cytochrome P450 2C19) | pIC50 (Cytochrome P450 2C8) | pIC50 (Cytochrome P450 3A4) | pIC50 (Cytochrome P450 1A2) | solubility [3] | remaining at 0.5 h, 1 µM [4] | remaining at 0.5 h, 1 µM [5] | pIC50 (Cytochrome P450 2C9) | pIC50 (Cytochrome P450 2D6) | Compound | further results |
| --- | --- | --- | --- | --- | --- | --- | --- | --- | --- | --- | --- | --- | --- |
| 6.59 |  |  |  |  |  |  |  |  |  |  |  | O=C(c1cccc(F)c1)N1CCn2nc(-c3ccc(F)cn3)cc2C1 |  |
| 6.75 |  |  |  |  |  |  |  |  |  |  |  | O=C(c1cccc(Cl)c1)N1CCn2nc(-c3ccccn3)cc2C1 |  |
| 6.71 |  |  |  |  |  |  |  |  |  |  |  | Cc1cc(F)cc(C(=O)N2CCn3nc(-c4ccc(F)cn4)cc3C2)c1 |  |
| 6.63 | > 100 µg/mL | < 4.30 | < 4.30 | < 4.30 | < 4.30 | < 4.30 | > 100 µg/mL | 92% | 95% | < 4.30 | < 4.30 | O=C(c1ccccc1)N1CCn2nc(-c3ccccn3)cc2C1 |  |
| 6.79 |  |  |  |  |  |  |  |  |  |  |  | O=C(c1ccccc1)N1CCn2nc(-c3ccc(F)cn3)cc2C1 |  |
| 7.12 | 79 µg/mL (≈ 211 µM) | < 4.40 | < 4.40 | < 4.40 | < 4.40 | < 4.40 | 7 µg/mL (≈ 18.7 µM) | > 97% | > 97% | < 4.40 | < 4.40 | O=C(c1cc(F)cc(Cl)c1)N1CCn2nc(-c3ccc(F)cn3)cc2C1 | AUC(0-inf) [6]: 7220 ng·h/mL; Kp at 1 h [7]: 1.38; bioavailability [8]: 95%; Activity (Mus musculus): Active; Activity [9]: Not Active; concentration at 1 h [10]: 21.4 µM; concentration at 1 h [11]: 29.5 µM; Vd [12]: 1.5 L/kg; fraction unbound at 1 h [13]: 0.05; Cmax [14]: 2930 ng/mL; clearance [15]: 2.3 mL/min/kg; efflux ratio (P-gp (ABCB1)): 1.2; pIC50 [16]: 4.82; Papp [17]: 37 ×10⁻⁶ cm/s; half-life [18]: 9.2 h; AUC(0-inf) [19]: 68700 ng·h/mL; Drug uptake(free) [20]: 1.38 µM; Activity [21]: Not Active |
